Measured values published in US20090042823A1 (priority 2007, published 2009).

Tested on: PR8 virus
Parameters: species or system influenza A virus
Conditions: in vivo

## CCOC(=O)C1=C[C@@H](OC(CC)CC)[C@H](NC(C)=O)[C@@H](N)C1 [oseltamivir drug, oseltamivir]
  influenza viral titer relative to GFP control siRNA: reduced influenza viral titers
